{
  "source": "patent US11225470B2",
  "about": "“Tetrazolinone compounds and its use as pest control agents” (SUMITOMO CHEMICAL COMPANY, LIMITED, priority 2016, dated 2022)",
  "format_in_all_cases": "in vivo",
  "key": {"[1]": {"test_system": "soybean frogeye leaf spot disease fungi (Cercospora sojina)", "experiment": "soybean frogeye leaf spot test, spraying after inoculation", "conditions": "200 ppm foliar spray 5 days after inoculation; soybean cv TACHINAGAHA"}, "[2]": {"test_system": "kidney bean sclerotinia rot fungi (Sclerotinia sclerotiorum)", "experiment": "kidney bean sclerotinia rot test", "conditions": "200 ppm foliar spray; kidney bean cv NAGAUZURA SAITO; observed after four days", "method": "Each of plastic pots was filled with soil and thereto Kidney bean (cv; NAGAUZURA SAITO) seeds were sown and the kidney beans were grown in a greenhouse for 8 days. Thereafter, any of the present compounds 1-1, 1-2, 1-3, 1-5, 1-10, 3-16, 3-22, 4-2, 4-3, 4-4, 4-8, or 6-2, each of which was made to a formulation according to the similar method to that of Formulation Example 6, was mixed with water so as to be a prescribed concentration (500 ppm). The adjusted solutions were sprayed to foliar parts so as to adhere adequately on the leaves of the above-mentioned kidney bean. After spraying the mixtures, the kidney beans were air-dried and a PDA medium containing hyphae of kidney bean sclerotinia rot fungi (Sclerotinia sclerotiorum) was placed on the leaves of the kidney bean. After the inoculation, all kidney beans were placed under a high humidity during only night and after four days, a lesion area was observed.\nEach of plastic pots was filled with soil and thereto Kidney bean (cv; NAGAUZURA SAITO) seeds were sown and the kidney beans were grown in a greenhouse for 8 days. […] The adjusted solutions were sprayed to foliar parts so as to adhere adequately on the leaves of the above-mentioned kidney bean. […]"}, "[3]": {"test_system": "tomato late blight fungi (Phytophthora infestans)", "conditions": "500 ppm foliar spray, inoculation after 1 day; tomato cv PATIO"}, "[4]": {"test_system": "cabbage moth (Plutella xylostella)", "experiment": "cabbage moth mortality test on cabbage seedling", "conditions": "120 h, 500 ppm spray on cabbage seedling, five second instar larvae, counted after 5 days, read-out: Morality (%)", "excerpt": "Any of the present compounds 1-4, 1-5, 1-6, 3-9, 3-13, 3-17, 3-23, 3-25, 3-26, 3-29, 3-31, 4-1 or 5-3, each of which was made to a formulation according to the similar method to that of Formulation Example 6, was mixed with water so as to be 500 ppm. The mixtures were sprayed to foliar parts of the cabbage seedling (on the developmental stage of the second to third true leaf) that was planted in a container so as to adhere adequately on the leaves of the above-mentioned cabbage. After the spraying, the stem and leaf of the seedling was cut out and then was installed into the container that was covered with the filter paper. Five heads of cabbage moth (Plutella xylostella) at the second instar larval stages were released into the cup. After 5 days, the surviving insects were counted, and the mortality of insects was calculated by the following equation. Morality (%)={1−the number of the surviving insects/5}×100"}, "[5]": {"test_system": "cotton aphid (Aphis gossypii)", "experiment": "cotton aphid test on cucumber seedling", "conditions": "144 h, 500 ppm spray on infested cucumber seedling, counted after 6 days, read-out: Controlling value (%)"}, "[6]": {"test_system": "soybean frogeye leaf spot disease fungi (Cercospora sojina)", "experiment": "soybean frogeye leaf spot test, spraying before inoculation", "conditions": "3.1 ppm foliar spray, inoculation after 2 days; soybean cv Tachinagaha"}, "[7]": {"test_system": "kidney bean sclerotinia rot fungi (Sclerotinia sclerotiorum)", "experiment": "kidney bean sclerotinia rot test, plants placed outside for 6 days before inoculation", "conditions": "200 ppm foliar spray, observed after six days", "excerpt": "Each of plastic pots was filled with soil and kidney bean (cultivar: NAGAUZURA SAITO) was sown and grown in a greenhouse for 8 days. Then, the comparative test compound cf5, the present compound E-1, E-3, E-11, or E-16, each of which was made to a formulation according to the similar method to that of Formulation Example 6, was mixed with water so as to be 200 ppm. The mixtures were sprayed to foliar parts so as to adhere adequately on the leaves of the above-mentioned kidney bean. After spraying the mixtures, the kidney beans were air-dried, and placed outside for 6 days. Thereafter, a PDA medium containing hyphae of kidney bean sclerotinia rot fungi (Sclerotinia sclerotiorum) was placed on the leaves of the kidney bean. After the inoculation, all kidney beans were placed indoors under a high humidity during only night and after six days, a lesion area was observed."}, "[8]": {"test_system": "wheat leaf blotch fungi (Septoria tritici)", "experiment": "wheat leaf blotch test on 45-day wheat, plants placed outside for 4 days before inoculation", "conditions": "300 ppm, 200 L/ha, Formulation Example 4, wheat cv APOGEE grown 45 days", "excerpt": "Each of plastic pots was filled with soil and wheat (cultivar: APOGEE) was sown, and the […] grown in a greenhouse for 45 days. Then, the comparative test compound cf3, the present compound E-15, or E-16, each of which was made to a formulation according to the similar method to that of Formulation Example 4, was mixed with water so as to be 300 ppm. The mixtures were sprayed to foliar parts of the wheat by the volume of 200 L/ha. After spraying the mixtures, the […], and placed outside for 4 days. Thereafter, an aqueous suspension of the spores of wheat leaf blotch fungi (Septoria tritici) was spraying-inoculated."}},
  "data": [
    {"smiles": "CCC(=NN=C(C)c1ccc2ccccc2c1)OCc1c(C)cccc1-n1nnn(C)c1=O", "note": "[cf1]", "values": [
      {"measurement": "lesion area compared to the lesion area in an untreated soybean", "setting": "[1]", "result": "≥ 50", "unit": "%"},
      {"measurement": "lesion area compared to the lesion area in an untreated kidney bean", "setting": "[2]", "result": "≥ 50", "unit": "%"}
    ]},
    {"smiles": "CCC(=NN=C1CCc2c(OC)cccc21)OCc1c(C)cccc1-n1nnn(C)c1=O", "note": "[E-6]", "values": [
      {"measurement": "lesion area compared to the lesion area in an untreated tomato", "setting": "[3]", "result": "≤ 30", "unit": "%"},
      {"measurement": "pest or weed control at 500 ppm", "setting": "[4]", "result": "≥ 80", "unit": "%"},
      {"measurement": "pest or weed control at 500 ppm", "setting": "[5]", "result": "≥ 60", "unit": "%"}
    ]},
    {"smiles": "CCC(=NN=C(C)c1ccccc1)OCc1c(C)cccc1-n1nnn(C)c1=O", "note": "[cf5]", "values": [
      {"measurement": "area of lesion compared to that on an untreated bean", "setting": "[6]", "result": "more than 70%"},
      {"measurement": "lesion area compared to the lesion area in an untreated kidney bean", "setting": "[7]", "result": "≥ 70", "unit": "%"}
    ]},
    {"smiles": "CCC(=NN=C(C)c1ccc(F)cc1)OCc1c(C)cccc1-n1nnn(C)c1=O", "note": "[cf3]", "values": [
      {"measurement": "lesion area compared to the lesion area in an untreated wheat", "setting": "[8]", "result": "≥ 80", "unit": "%"}
    ]}
  ]
}
